{"source": "patent US20190300832A1", "about": "“METHOD AND KIT FOR EXPANDING CIRCULATING TUMOR CELLS IN VITRO” (Taipei Medical University, priority 2018, published 2019)", "key": {"[1]": {"system": "small cell lung cancer", "test": "Clinical treatment outcome of the patients the circulating tumor cells were taken from", "format": "in vivo, human", "details": "treated clinically", "from_the_text": "As can be known from FIG. 54, in the presence of cisplatin, etoposide, and Topotecan, the survival rate of the circulating tumor cells 21 derived the blood of the first patient is more than 85%, and there is no significant decrease compared with the control group Ctrl.\nAs can be known from FIG. 55, in the presence of cisplatin and topotecan, the survival rate of the expanded circulating tumor cells 21 from the second patient is less than 20%, and there is significant decrease compared with the control group Ctrl. […] In combination with the outcome where the patient is treated with cisplatin, etoposide, and Topotecan clinically, it can be further confirmed that the cisplatin and topotecan respond well to small cell lung cancer in the second patients, that is, have therapeutic effect."}, "[2]": {"system": "circulating tumor cells derived from patients with small cell lung cancer", "test": "CellTiter Luminescent cell viability of expanded circulating tumor cells treated with drugs", "format": "cell-based, human", "details": "expanded circulating tumor cells from the second small cell lung cancer patient; FIG. 55; result in words", "description": "In some embodiments, the preparation of the cell solution can be performed as follows. 5 ml of blood is sampled respectively patients having breast cancer, pancreatic cancer, and small cell lung cancer. 15 ml of Ficoll-Paque is added to a Leucosep™ centrifuge tube and centrifuged. The blood is diluted in phosphate buffered saline (PBS) and transferred to the Leucosep™ centrifuge tube, followed by centrifugation. After centrifugation, the supernatant in the Leucosep™ centrifuge tube is removed, and the retained lower solution is a monocyte phase. A circulating tumor cell enriched antibody mixture (RosetteSep™ CTC Enrichment Cocktail Containing AntiCD56) is added to the monocyte phase, and mixed at room temperature. After mixing, a PBS buffer containing 2% (v/v) Fetal Bovine Serum (FSB) is added and mixed to give a monocyte solution. Also, the monocyte solution is added to Ficoll-Paque and centrifuged at room temperature. […]\nAccording to the above procedure, the circulating tumor cells 21 are isolated from the blood of two patients with small cell lung cancer and cultured. […] The cell viability was measured by CellTiter Luminescent cell viability and the survival rate is calculated by the following formula:\nCell survival rate (%)=(luminescence density in the treated group/luminescence density in the control group)×100%. […]"}}, "data": [{"smiles": "CC[C@@]1(O)C(=O)OCc2c1cc1n(c2=O)Cc2cc3c(CN(C)C)c(O)ccc3nc2-1", "note": "[Topotecan]", "values": [{"measurement": "Clinical therapeutic effect on small cell lung cancer", "setting": "[1]; first patient", "value": "no significant therapeutic effect"}, {"measurement": "Clinical therapeutic effect on small cell lung cancer", "setting": "[1]; second patient", "value": "respond well"}]}, {"smiles": "N.N.[Cl][Pt][Cl]", "note": "[cisplatin]", "values": [{"measurement": "Clinical therapeutic effect on small cell lung cancer", "setting": "[1]; first patient", "value": "no significant therapeutic effect"}, {"measurement": "Clinical therapeutic effect on small cell lung cancer", "setting": "[1]; second patient", "value": "respond well"}]}, {"smiles": "COc1cc([C@@H]2c3cc4c(cc3[C@@H](O[C@@H]3O[C@@H]5CO[C@@H](C)O[C@H]5[C@H](O)[C@H]3O)[C@H]3COC(=O)[C@H]23)OCO4)cc(OC)c1O", "note": "[etoposide]", "values": [{"measurement": "Cell survival rate compared with control group", "setting": "[2]", "value": "lower than the control group Ctrl"}, {"measurement": "Clinical therapeutic effect on small cell lung cancer", "setting": "[1]; first patient", "value": "no significant therapeutic effect"}]}]}
